Measured values as given in article PMC3229538, “Inhibition of G Protein-Activated Inwardly Rectifying K^+ Channels by Different Classes of Antidepressants” (PLoS ONE, 2011).
Where a name gives a salt, the structure may show the parent alone. Read-outs that look alike come from different tables or passages of the source. Blank lines part the entries; values can stand above or below the compound they belong to.

How the values were obtained:
GIRK channels = details: cited from earlier work
[1] = biological target: GIRK1/2 channels activated by ethanol (Mus musculus, UniProt P48542+P63250); details: 100 mM
From the text: These plasmids were linearized by digestion with the appropriate enzymes as described previously [45], [46]. The specific mRNAs were synthesized in vitro using the mMESSAGE mMACHINE™ In Vitro Transcription Kit (Ambion, Austin, TX, USA).

[2] = cited from earlier work
GIRK1/4 channels = biological target: T1, GIRK1/4 channels (Mus musculus, UniProt P48545+P63250); assay: Inhibition of basal GIRK currents, Xenopus oocyte expression assay, two-electrode voltage clamp; format: cell-based; details: for inhibition at 100 µM: read-out: % inhibition of basal GIRK currents
T1 construct: expressed in transfected cells; host or cells: Xenopus laevis oocytes injected with in vitro transcribed mRNA
T1 sequence (P63250 1-501): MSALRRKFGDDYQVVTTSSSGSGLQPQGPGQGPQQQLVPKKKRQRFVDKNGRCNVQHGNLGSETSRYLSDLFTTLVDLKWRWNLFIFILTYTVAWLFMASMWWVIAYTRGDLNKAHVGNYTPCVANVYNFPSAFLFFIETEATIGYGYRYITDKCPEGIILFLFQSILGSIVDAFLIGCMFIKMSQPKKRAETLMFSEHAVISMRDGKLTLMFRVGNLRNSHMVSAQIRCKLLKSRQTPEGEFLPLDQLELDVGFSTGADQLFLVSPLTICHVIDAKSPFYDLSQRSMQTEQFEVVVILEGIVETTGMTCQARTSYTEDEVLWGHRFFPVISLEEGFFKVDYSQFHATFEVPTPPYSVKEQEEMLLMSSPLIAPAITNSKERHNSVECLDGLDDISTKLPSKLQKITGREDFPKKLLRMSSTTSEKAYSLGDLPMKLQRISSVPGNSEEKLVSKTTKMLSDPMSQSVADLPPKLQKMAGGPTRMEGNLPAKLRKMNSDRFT
T1 sequence (P48545 1-419): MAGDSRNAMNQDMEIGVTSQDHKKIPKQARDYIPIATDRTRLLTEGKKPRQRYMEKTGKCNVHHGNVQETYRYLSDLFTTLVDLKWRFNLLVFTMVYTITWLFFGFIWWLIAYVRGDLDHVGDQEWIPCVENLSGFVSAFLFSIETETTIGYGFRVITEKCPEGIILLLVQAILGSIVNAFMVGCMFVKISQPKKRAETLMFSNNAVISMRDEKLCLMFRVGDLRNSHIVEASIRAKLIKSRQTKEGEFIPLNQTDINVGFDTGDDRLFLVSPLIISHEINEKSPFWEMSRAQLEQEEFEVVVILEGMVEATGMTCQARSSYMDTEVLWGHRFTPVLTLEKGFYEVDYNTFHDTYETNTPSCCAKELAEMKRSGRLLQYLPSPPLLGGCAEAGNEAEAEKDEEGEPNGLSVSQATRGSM
Protocol: (§1) Microelectrodes were filled with 3 M KCl. […] The data are expressed as mean ± SEM, and n is the number of oocytes tested. The statistical analysis of differences between groups was performed using paired t-test, one-way analysis of variance (ANOVA), or two-way ANOVA followed by the Tukey-Kramer post hoc test. Values of P<0.05 were considered statistically significant.

GIRK1/2 channels = biological target: T2, GIRK1/2 channels (Mus musculus, UniProt P48542+P63250); assay: as above; format: cell-based; details: for inhibition at 100 µM: read-out: % inhibition of basal GIRK currents
T2 construct: expressed in transfected cells; host or cells: Xenopus laevis oocytes injected with in vitro transcribed mRNA
T2 sequence (P63250 1-501): T1 sequence (P63250 1-501)
T2 sequence (P48542 1-425): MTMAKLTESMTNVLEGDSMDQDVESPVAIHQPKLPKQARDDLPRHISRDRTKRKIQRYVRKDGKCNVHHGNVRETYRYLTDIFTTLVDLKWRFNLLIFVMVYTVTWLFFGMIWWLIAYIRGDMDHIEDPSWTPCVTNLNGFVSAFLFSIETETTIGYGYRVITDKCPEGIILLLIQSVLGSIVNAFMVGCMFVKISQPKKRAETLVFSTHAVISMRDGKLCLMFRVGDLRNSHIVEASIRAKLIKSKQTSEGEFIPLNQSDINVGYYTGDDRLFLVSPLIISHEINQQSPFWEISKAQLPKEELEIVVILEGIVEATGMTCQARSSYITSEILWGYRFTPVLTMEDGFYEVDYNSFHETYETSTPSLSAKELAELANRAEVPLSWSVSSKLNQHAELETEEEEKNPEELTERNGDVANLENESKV
Protocol: as §1

[3] = cited from earlier work; remark: listed apart in the source
[4] = ref Data Sheets of Pfizer and Eli Lilly and Company; cited from earlier work
[5] = tested on: intrinsic oocyte channels; assay: Current responses in uninjected Xenopus oocytes; format: cell-based, Xenopus laevis
Protocol: as §1, with “Louis, MO, USA). […] Microelectrodes” for “Microelectrodes”, “KCl. […] For the analysis of concentration-response relationships, the data were fitted to a standard logistic equation [51] using KaleidaGraph (Synergy Software, Reading, PA, USA).” for “KCl.”

Kir2.1 channels = tested on: T3, Kir2.1 channels; assay: Effect on Kir2.1 currents, Xenopus oocyte expression assay; format: cell-based, mouse; details: 300 µM, hK solution
T3 construct: expressed in transfected cells; host or cells: Xenopus laevis oocytes injected with in vitro transcribed mRNA
Protocol: Microelectrodes were filled with 3 M KCl. […]. The data are expressed as mean ± SEM, and n is the number of oocytes tested. The statistical analysis of differences between groups was performed using paired t-test, one-way analysis of variance (ANOVA), or two-way ANOVA followed by the Tukey-Kramer post hoc test. Values of P<0.05 were considered statistically significant.

[6] = pKa of secondary amine group and protonation; format: physicochemical; details: pH 7.4
[7] = biological target: T4, GIRK1/2 channels activated by GTPγS (Mus musculus, UniProt P48542+P63250); assay: Inhibition of total GIRK currents (GTPγS-induced and basal) in GTPγS-injected oocytes; format: cell-based; details: injection of 13.8 nl of 100 mM into oocyte
T4 construct: expressed in transfected cells; host or cells: Xenopus laevis oocytes injected with in vitro transcribed mRNA
T4 sequence (P63250 1-501): T1 sequence (P63250 1-501)
T4 sequence (P48542 1-425): T2 sequence (P48542 1-425)
From the text: Microelectrodes were filled with 3 M KCl. […] GIRK channels are activated by various Gi/o-protein-coupled receptors through the direct action of G-protein βγ subunits released from the heterotrimeric G-protein complex, [33].

[8] = 100 µM, K4 solution 4 mM K+, −10 mV
[9] = basal GIRK currents, −70 mV, hK solution 96 mM K+
[10] = concentration reducing basal GIRK currents by 25%
[11] = concentration reducing basal GIRK currents by 50%
[12] = read-out: % max (percentage inhibition of basal GIRK currents at the highest concentration tested)

SMILES: CCN(CC)C(=O)C1(c2ccccc2)CC1CN (stereo not drawn) [milnacipran]
effects on GIRK channels (GIRK channels): little effects

SMILES: COc1ccc(C(CN(C)C)C2(O)CCCCC2)cc1 (stereo not drawn) [venlafaxine, Venlafaxine hydrochloride]
brain levels compared with blood levels [3]: 4.9 fold | concentrations in cases of overdose [2]: ≤ 302.8 µM | inhibition at 100 µM (GIRK1/4 channels): 22.8 ± 3.2% | inhibition at 100 µM (GIRK1/2 channels): 19.4 ± 4.6%

SMILES: CNCC[C@H](Oc1cccc2ccccc12)c1cccs1 [duloxetine, duloxetine hydrochloride]
pKa of secondary amine group [4]: 9.34 | current response [5, 8]: 0±0 nA | protonated form [6]: ~98.9% | brain levels compared with blood levels [3]: 15 fold | concentrations in cases of overdose [2]: ≤ 8.4 µM | n H (Hill coefficient) (GIRK1/4 channels; basal GIRK currents): 0.97±0.07 | EC50 (GIRK1/4 channels; [9]): 17 ± 1.3 µM | IC25 (GIRK1/4 channels; [10]): 12.6 ± 1.2 µM | IC50 (GIRK1/4 channels; [11]): 124 ± 34.3 µM | inhibition at 100 µM (GIRK1/4 channels): 49.7 ± 2.2% | inhibition at 300 µM (GIRK1/4 channels; [12]): 54.1 ± 1.5% | effect on outward GIRK currents (GIRK1/2 channels; 30 µM, K4 solution 4 mM K+, holding potential −10 mV): reversibly reduced | voltage dependence of GIRK current inhibition at the end of the voltage pulses (GIRK1/2 channels; 30 µM, −120 to −40 mV): voltage-dependent | n H (Hill coefficient) (GIRK1/2 channels; basal GIRK currents): 0.94±0.06 | EC50 (GIRK1/2 channels; [9]): 14.9 ± 0.4 µM | IC25 (GIRK1/2 channels; [10]): 6.6 ± 0.6 µM | IC50 (GIRK1/2 channels; [11]): 28.3 ± 2.5 µM | effect of extracellular pH on percentage inhibition of GIRK channels (GIRK1/2 channels; extracellular pH 7.4 and 9.0): not significantly affected | inhibition at 100 µM (GIRK1/2 channels): 65.6 ± 1% | inhibition at 300 µM (GIRK1/2 channels; [12]): 72.2 ± 1.1%

SMILES: [Ba+2] [Ba^2+]
current response ([5]; 3 mM, K4 solution 4 mM K+, −10 mV): 7.6±1.3 nA | current response in GTPγS-injected uninjected oocytes ([5]; 3 mM, after GTPγS injection): 3.9±2.1 nA | current response ([5]; 3 mM, hK solution, −70 mV): 3.1±1.7 nA

Now from value to compound, other results behind:

induced GIRK currents [1]: 344.2±40.3 nA
SMILES: CCO [ethanol, Ethanol]

inhibition at 100 µM (GIRK1/4 channels; 100 µM, −70 mV, hK solution): 30.3 ± 3.4% | inhibition at 100 µM (GIRK1/2 channels; 100 µM, −70 mV, hK solution): 35.9 ± 3.5%
SMILES: CCc1nn(CCCN2CCN(c3cccc(Cl)c3)CC2)c(=O)n1CCOc1ccccc1 [nefazodone, nefazodone hydrochloride]
concentrations in cases of overdose [2]: ≤ 11.7 µM

inhibition at 100 µM (GIRK1/4 channels; 100 µM, −70 mV, hK solution): 18.8 ± 1.3% | inhibition at 100 µM (GIRK1/2 channels; 100 µM, −70 mV, hK solution): 24.1 ± 5.5%
SMILES: CN1CCN2c3ccccc3Cc3ccccc3C2C1 (stereo not drawn) [mianserin, mianserin hydrochloride]
brain levels compared with blood levels [3]: 12.1 fold | concentrations in cases of overdose [2]: ≤ 18.9 µM

protonated form [6]: approximately 96.9%
SMILES: CN[C@H]1CC[C@@H](c2ccc(Cl)c(Cl)c2)c2ccccc21 [sertraline, Sertraline hydrochloride]
pKa of secondary amine group [4]: 8.9 | current response [5, 8]: 3.0±0.9 nA | current response ([5]; 300 µM, hK solution, −70 mV): 2.0±2.0 nA | % change of the Ba2+-sensitive current components (Kir2.1 channels): less than 2%

inhibition at 100 µM (GIRK1/4 channels; 100 µM, −70 mV, hK solution): 12.1 ± 2.4% | inhibition at 100 µM (GIRK1/2 channels; 100 µM, −70 mV, hK solution): 17.6 ± 3.5%
SMILES: CN1CCN2c3ncccc3Cc3ccccc3C2C1 (stereo not drawn) [mirtazapine, Mirtazapine]
brain levels compared with blood levels [3]: 3.2 fold

increase of inward currents, steady-state level [7]: 516.0±123.7 nA
SMILES: Nc1nc2c(ncn2[C@@H]2O[C@H](COP(=O)([O-])OP(=O)([O-])OP([O-])([O-])=S)[C@@H](O)[C@H]2O)c(=O)[nH]1.[Li+].[Li+].[Li+].[Li+] [GTPγS, Li4-guanosine-5′-O-(3-thiotriphosphate)]
